Assay results: PMC8016166, “Identification of a Potent and Selective 5-HT1A Receptor Agonist with In Vitro and In Vivo Antinociceptive Activity” (ACS Chemical Neuroscience, 2020)

Tests used:
[1] = test system: Hep-G2 cells; assay: Hep-G2 cell viability (MTT assay); type: cell-based; conditions: 72 h; for hepatic cell viability vs untreated control cells: 50 μM; for hepatic cell viability (toxicity): concentrations ≤10 μM
Experimental: HEK293 cells with stable expression of human 5-HT1A, 5-HT6, and 5-HT7b (prepared with the use of Lipofectamine 2000) were grown in Dulbecco’s Modified Eagle Medium (DMEM) containing 10% dialyzed fetal bovine serum (FBS) and 500 μg/mL G418 sulfate. Liver hepatocellular carcinoma Hep-G2 cells were cultured in DMEM enriched by 10% FBS, 2 mM L-glutamine, 100 IU/mL penicillin, and 50 μg/mL streptomycin (all from Sigma-Aldrich Corporation, a division of Merck KGaA, Darmstadt, Germany). Cell lines were maintained at 37 °C in a humidified atmosphere with 5% CO2. For membrane preparation, the cells were subcultured in 150 cm^2 flasks, grown to 90% confluence, washed twice with prewarmed to 37 °C phosphate buffered saline (PBS), and pelleted by centrifugation (200g) in PBS containing 0.1 mM EDTA and 1 mM dithiothreitol. Prior to membrane preparation, pellets were stored at −80 °C.
Liver hepatocellular carcinoma Hep-G2 cells were seeded in 96-well plates (1 × 10^4 cells/well) and maintained under continuous stimulation with increasing concentrations (nM−μM range) of the tested compounds. 200 mM ethanol and 5% Triton X-100 (Sigma-Aldrich Corporation) served as controls. The viability of cells was assessed by MTT assay as previously described.[66],[67] The absorbance was detected by a Victor3 plate reader (PerkinElmer Inc., Waltham, MA, USA) and represented by box and whiskers plot, as a measure of cell viability. Differences between values from treated and untreated cells were evaluated by two-ANOVA followed by Dunnett’s multiple comparison test (p < 0.05).

[2] = target: T1, human 5-HT7b (Homo sapiens, UniProt P34969); assay: Radioligand binding at 5-HT7 in transfected HEK293 cells; conditions: for selectivity 5-HT7/5-HT1A: Antilog [pKi (5-HT1AR) – pKi (5-HT7R)]; for Ki: transfected HEK293 cells, [3H]-5-CT, read-out: 5-HT7 pKi ± SEM (converted)
T1 construct: expressed in transfected cells
T1 sequence (P34969 1-432): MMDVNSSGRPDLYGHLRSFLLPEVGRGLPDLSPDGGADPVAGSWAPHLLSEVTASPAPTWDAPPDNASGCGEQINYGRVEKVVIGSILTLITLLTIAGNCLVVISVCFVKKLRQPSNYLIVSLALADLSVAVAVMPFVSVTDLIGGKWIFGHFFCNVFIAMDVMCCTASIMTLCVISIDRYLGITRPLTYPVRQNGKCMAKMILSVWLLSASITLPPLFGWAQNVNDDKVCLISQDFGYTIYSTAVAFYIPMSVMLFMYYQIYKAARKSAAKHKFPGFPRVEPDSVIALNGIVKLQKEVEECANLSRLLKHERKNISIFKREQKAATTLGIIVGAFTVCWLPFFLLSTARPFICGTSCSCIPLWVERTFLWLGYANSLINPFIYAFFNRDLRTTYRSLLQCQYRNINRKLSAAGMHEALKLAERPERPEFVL

[3] = target: T2, 5-HT2CR (Rattus norvegicus, UniProt P08909); assay: Radioligand binding at 5-HT2C on rat frontal cortex membranes; conditions: for selectivity 5-HT2/5-HT1A: Antilog [pKi (5-HT1AR) – pKi (5-HT2CR)]; for Ki: rat frontal cortex membranes, [3H]mesulergine, read-out: 5-HT2C pKi ± SEM (converted)
T2 construct: from tissue; host or cells: frontal cortex of male Sprague-Dawley rats
T2 sequence (P08909 33-460): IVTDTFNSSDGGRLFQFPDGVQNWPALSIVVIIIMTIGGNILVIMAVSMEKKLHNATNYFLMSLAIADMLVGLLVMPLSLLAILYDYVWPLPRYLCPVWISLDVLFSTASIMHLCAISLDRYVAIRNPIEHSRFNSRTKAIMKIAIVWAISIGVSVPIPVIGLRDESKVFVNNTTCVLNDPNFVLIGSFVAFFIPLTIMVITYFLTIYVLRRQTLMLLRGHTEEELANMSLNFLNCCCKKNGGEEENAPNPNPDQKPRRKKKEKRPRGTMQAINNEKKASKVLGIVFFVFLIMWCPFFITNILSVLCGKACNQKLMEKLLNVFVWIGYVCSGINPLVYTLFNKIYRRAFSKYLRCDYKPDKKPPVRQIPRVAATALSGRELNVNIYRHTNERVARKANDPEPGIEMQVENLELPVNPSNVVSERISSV
Experimental: Male Sprague–Dawley rats were decapitated and their brains removed and placed on ice. The hippocampi (for the functional 5-HT1A receptor assay) or frontal cortexes (for the competitive 5-HT2A and 5-HT2C receptor assays) were dissected and homogenized with a glass homogenizer in 30 vol. ice-cold TED buffer (50 mMTris-HCl, 1 mM EDTA, 1 mM dithiotheritol, pH 7.4). Next, the homogenate was centrifuged at 21 000g for 30 min at 4 °C. The pellet was suspended in 30 vol TED buffer (pH 7.4) and incubated in a water bath for 10 min at 37 °C to remove endogenous ligands. The suspension was centrifuged again at 21 000g for 30 min at 4 °C. The pellet was resuspended in 30 vol TED buffer (pH 7.4) and the centrifugation step was repeated. The final pellet was suspended in 10 vol 50 mM Tris-HCl (pH 7.4) and stored at −80 °C until use.[47]
The 5-HT2A assay was performed according to a previously described protocol with some modifications.[48] […] Nonspecific binding was determined in the presence of 10 μM mianserin. For the 5-HT2C assay, the frontal cortex homogenates (250 μg protein/mL) were incubated in triplicate with 1 nM [^3H]mesulergine for 60 min at 36 °C in a 50 mM Tris-HCl (pH 7.4) buffer containing 0.1% ascorbate, 10 mM MgCl2, 10 μM pargyline, 100 nM spiperone, and increasing concentrations (10^–10–10^–5 M) of the compound tested. After incubation, the reaction mixture was deposited onto UniFilter-96 GF/B plates, with the aid of a FilterMate-96 Harvester. The filter plates were presoaked with 0.4% PEI for 1 h. Next, each filter well was washed with 1.75 mL of 50 mM Tris-HCl (pH 7.4) and left to dry on a heating block set to 50 °C for 2 h. Then, 45 μL of Microscint-20 scintillation fluid was added to each filter well and left to equilibrate overnight. The filter-bound radioactivity was counted in a MicroBeta^2 Microplate Counter. Curves were fitted with a one-site sigmoidal dose–response equation and pKi for each compound was calculated with the Cheng-Pursoff equation. Results were analyzed with one-way ANOVA followed by the Bonferroni’s posthoc test. The results are expressed as means ± SEM of three independent experiments.

SMILES	hepatic cell viability vs untreated control cells [1]	hepatic cell viability (toxicity) [1]	selectivity 5-HT7/5-HT1A [2]	Ki [2] [nM]	selectivity 5-HT2/5-HT1A [3]	Ki [3] [nM]	hepatic cell viability ([1]; 10 and 5 μM)
c1ccc(C2(c3ccccc3)OC[C@H](CNCCOc3ccccc3-c3ccncc3)O2)cc1 [(S)-1, N-[(2,2-Diphenyl-1,3-dioxolan-4-yl)methyl]-2-[2-(pyridin-4-yl)phenoxy]ethan-1-ammonium hydrogenoxalate]	no effect	very low toxicity	43	398	102	955	
Cn1cncc1-c1ccccc1OCCNC[C@H]1COC(c2ccccc2)(c2ccccc2)O1 [(S)-2, N-((2,2-Diphenyl-1,3-dioxolan-4-yl)methyl)-2-(2-(1-methyl-1H-imidazol-5-yl)phenoxy)ethan-1-ammonium hydrogenoxalate]	negatively impacted cell viability		148	603	78	316	decreased cell viability
c1ccc(C2(c3ccccc3)OC[C@@H](CNCCOc3ccccc3-c3ccncc3)O2)cc1 [(R)-1, N-[(2,2-Diphenyl-1,3-dioxolan-4-yl)methyl]-2-[2-(pyridin-4-yl)phenoxy]ethan-1-ammonium hydrogenoxalate]	negatively impacted cell viability	very low toxicity	112	501	204	912	
c1ccc(C2(c3ccccc3)OCC(CNCCOc3ccccc3-c3ccncc3)O2)cc1 (racemic) [rac-1, N-[(2,2-diphenyl-1,3-dioxolan-4-yl)methyl]-2-[2-(pyridin-4-yl)phenoxy]ethan-1-ammonium hydrogenoxalate]			56	513	40	363	
Cn1cncc1-c1ccccc1OCCNC[C@@H]1COC(c2ccccc2)(c2ccccc2)O1 [(R)-2, N-((2,2-Diphenyl-1,3-dioxolan-4-yl)methyl)-2-(2-(1-methyl-1H-imidazol-5-yl)phenoxy)ethan-1-ammonium hydrogenoxalate]	negatively impacted cell viability	very low toxicity	66	794	105	1260	
Cn1cncc1-c1ccccc1OCCNCC1COC(c2ccccc2)(c2ccccc2)O1 (racemic) [rac-2, N-((2,2-diphenyl-1,3-dioxolan-4-yl)methyl)-2-(2-(1-methyl-1H-imidazol-5-yl)phenoxy)ethan-1-ammonium hydrogenoxalate]			89	661	45	331	
